# Activity calls are given as the source filed them.
# Tests used:
# [1] = molecular target: T1, Short transient receptor potential channel 4 (Mus musculus, UniProt Q9QUQ5); assay: calcium entry via TRPC4 opening agents – cell-based, HEK293 TRPC4/mu-opioid, Fluo-4 calcium, dose response (AID 434937); assay type: functional
# T1 sequence (Q9QUQ5 whole entry): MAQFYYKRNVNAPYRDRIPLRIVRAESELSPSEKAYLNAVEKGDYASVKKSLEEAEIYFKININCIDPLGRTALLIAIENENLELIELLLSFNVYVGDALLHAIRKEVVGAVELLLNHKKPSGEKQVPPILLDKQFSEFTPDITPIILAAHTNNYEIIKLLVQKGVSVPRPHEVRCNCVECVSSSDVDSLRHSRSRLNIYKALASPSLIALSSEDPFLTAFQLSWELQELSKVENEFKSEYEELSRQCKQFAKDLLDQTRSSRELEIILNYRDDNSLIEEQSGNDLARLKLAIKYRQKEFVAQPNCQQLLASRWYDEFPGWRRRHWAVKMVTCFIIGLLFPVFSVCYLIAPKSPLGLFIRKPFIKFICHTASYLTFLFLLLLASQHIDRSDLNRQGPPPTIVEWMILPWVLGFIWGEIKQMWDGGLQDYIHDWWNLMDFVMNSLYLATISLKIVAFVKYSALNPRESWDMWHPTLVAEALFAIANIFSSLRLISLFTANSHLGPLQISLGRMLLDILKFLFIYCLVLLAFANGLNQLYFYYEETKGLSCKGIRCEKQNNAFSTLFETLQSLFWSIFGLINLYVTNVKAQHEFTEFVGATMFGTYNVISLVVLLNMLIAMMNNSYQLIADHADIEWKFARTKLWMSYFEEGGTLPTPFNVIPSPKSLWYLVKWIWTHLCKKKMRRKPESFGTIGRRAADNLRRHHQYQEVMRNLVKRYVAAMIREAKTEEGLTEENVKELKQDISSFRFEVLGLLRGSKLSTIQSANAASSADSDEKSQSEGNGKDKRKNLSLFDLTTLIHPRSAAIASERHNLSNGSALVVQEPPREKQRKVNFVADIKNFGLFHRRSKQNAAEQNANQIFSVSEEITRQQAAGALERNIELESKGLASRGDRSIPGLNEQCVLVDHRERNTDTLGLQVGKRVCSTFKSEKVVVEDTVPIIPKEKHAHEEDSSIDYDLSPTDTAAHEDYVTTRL
# Ion channel NompC = Ion channel NompC (Danio rerio, UniProt Q7T1G6); assay: Fluorescence counterscreen assay for TRPML3 agonists: dose response cell-based high-throughput screening assay to identify agonists of the transient receptor potential channel N1 (TRPN1). [Related pubchem assays: 1526, 1424, 1448 ]; assay type: functional
# Mucolipin-3 = Mucolipin-3 (Homo sapiens, UniProt Q8TDD5); assay: Dose response cell-based high-throughput screening assay for agonists of the transient receptor potential channel ML3 (TRPML3). [Related pubchem assays: 1526, 1424, 1448 ]; assay type: functional
# Mucolipin-3, sequence (Q8TDD5 whole entry): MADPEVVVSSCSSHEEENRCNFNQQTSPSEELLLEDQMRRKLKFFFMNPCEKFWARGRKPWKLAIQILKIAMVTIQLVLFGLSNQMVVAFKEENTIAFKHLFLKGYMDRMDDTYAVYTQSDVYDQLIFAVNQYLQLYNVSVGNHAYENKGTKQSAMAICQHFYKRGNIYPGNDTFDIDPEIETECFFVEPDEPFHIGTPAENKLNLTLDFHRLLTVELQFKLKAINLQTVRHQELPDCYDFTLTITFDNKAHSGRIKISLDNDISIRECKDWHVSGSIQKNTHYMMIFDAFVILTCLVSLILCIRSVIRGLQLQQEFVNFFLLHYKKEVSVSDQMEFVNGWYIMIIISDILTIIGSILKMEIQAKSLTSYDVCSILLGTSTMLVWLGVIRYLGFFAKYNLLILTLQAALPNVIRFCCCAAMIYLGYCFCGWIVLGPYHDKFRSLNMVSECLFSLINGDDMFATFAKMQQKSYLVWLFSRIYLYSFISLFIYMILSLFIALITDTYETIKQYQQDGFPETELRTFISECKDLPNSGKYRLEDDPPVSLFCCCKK
# [2] = molecular target: T2, Corticotropin-releasing factor receptor 2/Corticotropin-releasing factor-binding protein (Homo sapiens, UniProt P24387+Q13324); assay: activators of CRF receptor 2 with binding protein – uHTS hits, confirmation (AID 602473); assay type: functional; details: read-out: EC50_Mean
# T2 sequence (Q13324 whole entry): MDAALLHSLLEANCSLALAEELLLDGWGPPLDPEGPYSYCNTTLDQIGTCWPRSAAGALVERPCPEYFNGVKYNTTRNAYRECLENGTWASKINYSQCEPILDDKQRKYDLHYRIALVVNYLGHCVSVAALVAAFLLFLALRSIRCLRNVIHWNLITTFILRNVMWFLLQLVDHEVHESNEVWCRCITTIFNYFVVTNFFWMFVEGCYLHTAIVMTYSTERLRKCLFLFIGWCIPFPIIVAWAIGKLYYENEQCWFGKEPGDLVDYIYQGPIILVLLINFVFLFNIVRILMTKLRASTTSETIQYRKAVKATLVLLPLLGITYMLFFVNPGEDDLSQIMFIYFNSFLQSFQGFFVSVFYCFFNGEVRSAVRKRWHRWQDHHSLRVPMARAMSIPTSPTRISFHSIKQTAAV
# T2 sequence (P24387 whole entry): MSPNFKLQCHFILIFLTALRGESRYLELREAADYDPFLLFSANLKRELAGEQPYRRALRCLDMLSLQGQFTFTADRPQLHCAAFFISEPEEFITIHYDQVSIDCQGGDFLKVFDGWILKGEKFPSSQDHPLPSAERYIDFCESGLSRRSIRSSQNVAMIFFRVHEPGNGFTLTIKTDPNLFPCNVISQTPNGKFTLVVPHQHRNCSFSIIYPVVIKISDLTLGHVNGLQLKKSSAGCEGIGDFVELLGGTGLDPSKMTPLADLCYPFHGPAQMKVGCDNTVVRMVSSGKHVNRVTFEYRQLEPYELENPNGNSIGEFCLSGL
# [3] = molecular target: T3, High affinity choline transporter 1 (Homo sapiens, UniProt Q9GZV3); assay: human choline transporter blockers, potency – cell-based, 5-point CRC, membrane potential dye, dose response (AID 504840); assay type: functional
# T3 sequence (Q9GZV3 whole entry): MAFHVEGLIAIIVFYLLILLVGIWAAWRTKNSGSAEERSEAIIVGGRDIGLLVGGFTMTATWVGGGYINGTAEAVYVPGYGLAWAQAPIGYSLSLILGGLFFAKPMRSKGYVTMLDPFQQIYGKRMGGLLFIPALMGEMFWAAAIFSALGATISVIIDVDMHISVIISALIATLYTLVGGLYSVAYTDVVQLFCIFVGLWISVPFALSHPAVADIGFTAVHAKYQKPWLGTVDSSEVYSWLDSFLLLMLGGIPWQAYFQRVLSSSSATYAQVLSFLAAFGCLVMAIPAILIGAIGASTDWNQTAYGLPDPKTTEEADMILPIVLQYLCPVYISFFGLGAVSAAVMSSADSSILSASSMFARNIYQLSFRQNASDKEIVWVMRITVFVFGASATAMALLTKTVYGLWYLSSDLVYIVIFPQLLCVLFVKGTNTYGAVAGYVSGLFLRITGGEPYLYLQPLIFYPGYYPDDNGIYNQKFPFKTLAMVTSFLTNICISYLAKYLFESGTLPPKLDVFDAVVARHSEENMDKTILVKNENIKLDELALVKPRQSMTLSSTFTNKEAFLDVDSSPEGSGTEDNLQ
# [4] = viability of PTEN-deleted HCT116 cells – cell-based, HCT116 PTEN knockout, dose response (AID 1047); assay type: functional;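 note: HCT116 colon tumor cells with PTEN knocked out; cells exposed to compound for 60 hours before readout; potency for loss of cell viability measured by luminescence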
# [5] = CCR5-tropic HIV-1 fusion blockers – cell-based, CCR5-tropic Env, dose response (AID 2279); assay type: functional
# [6] = Luminescence Cell-Based Dose Retest to Confirm Inhibitors of Cancer Stem Cells. [Related pubchem assays (depositor defined):AID2717, AID2721]; assay type: functional; details: Homo sapiens
# [7] = viability of HCT116 lacking mutant beta-catenin – cell-based, human colon tumor, dose response (AID 1045); assay type: functional;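 note: HCT116 colon tumor cells with beta catenin knocked out; cells exposed to compound for 60 hours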
# [8] = molecular target: T4, Neuropeptide Y receptor type 1 (Homo sapiens, UniProt P25929); assay type: functional;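 note: HEK293 cells with a CNG channel challenged with NPY then isoproterenol; potency as antagonist that reverses NPY suppression of cAMP signal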
# T4 sequence (P25929 whole entry): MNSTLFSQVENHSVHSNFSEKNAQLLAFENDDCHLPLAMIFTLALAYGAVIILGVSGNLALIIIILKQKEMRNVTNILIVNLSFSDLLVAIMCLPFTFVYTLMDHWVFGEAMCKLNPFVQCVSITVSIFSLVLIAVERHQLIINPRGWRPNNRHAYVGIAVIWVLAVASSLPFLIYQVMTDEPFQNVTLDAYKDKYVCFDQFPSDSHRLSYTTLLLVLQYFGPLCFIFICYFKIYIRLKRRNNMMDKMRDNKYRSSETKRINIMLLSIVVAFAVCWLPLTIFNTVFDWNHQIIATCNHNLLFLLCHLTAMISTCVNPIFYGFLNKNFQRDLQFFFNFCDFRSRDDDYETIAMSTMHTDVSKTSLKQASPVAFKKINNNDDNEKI
# [9] = molecular target: T5, Neuropeptide Y receptor type 2 (Homo sapiens, UniProt P49146); assay type: functional, cell-based;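 note: HEK293 cells expressing the receptor and a CNG channel; stimulus was NPY near EC95 followed by isoproterenol to raise cAMP; antagonist potency measured as restoring cAMP signal that NPY suppresses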
# T5 sequence (P49146 whole entry): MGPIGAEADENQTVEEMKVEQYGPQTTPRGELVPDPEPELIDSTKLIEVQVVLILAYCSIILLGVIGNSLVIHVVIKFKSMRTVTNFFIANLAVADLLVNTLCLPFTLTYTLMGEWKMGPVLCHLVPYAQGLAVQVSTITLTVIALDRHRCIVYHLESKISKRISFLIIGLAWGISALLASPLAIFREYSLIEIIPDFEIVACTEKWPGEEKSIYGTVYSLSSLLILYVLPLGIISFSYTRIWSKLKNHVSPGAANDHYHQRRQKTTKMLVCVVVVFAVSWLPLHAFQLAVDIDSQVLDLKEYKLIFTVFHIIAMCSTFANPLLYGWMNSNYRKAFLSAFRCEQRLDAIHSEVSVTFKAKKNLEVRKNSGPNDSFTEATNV
# [10] = molecular target: T6, Heat shock 70 kDa protein 1A (Homo sapiens, UniProt P0DMV8); assay: small-molecule inhibition of Hsp70 – biochemical, TR-FRET (AID 786)
# T6 sequence (P0DMV8 whole entry): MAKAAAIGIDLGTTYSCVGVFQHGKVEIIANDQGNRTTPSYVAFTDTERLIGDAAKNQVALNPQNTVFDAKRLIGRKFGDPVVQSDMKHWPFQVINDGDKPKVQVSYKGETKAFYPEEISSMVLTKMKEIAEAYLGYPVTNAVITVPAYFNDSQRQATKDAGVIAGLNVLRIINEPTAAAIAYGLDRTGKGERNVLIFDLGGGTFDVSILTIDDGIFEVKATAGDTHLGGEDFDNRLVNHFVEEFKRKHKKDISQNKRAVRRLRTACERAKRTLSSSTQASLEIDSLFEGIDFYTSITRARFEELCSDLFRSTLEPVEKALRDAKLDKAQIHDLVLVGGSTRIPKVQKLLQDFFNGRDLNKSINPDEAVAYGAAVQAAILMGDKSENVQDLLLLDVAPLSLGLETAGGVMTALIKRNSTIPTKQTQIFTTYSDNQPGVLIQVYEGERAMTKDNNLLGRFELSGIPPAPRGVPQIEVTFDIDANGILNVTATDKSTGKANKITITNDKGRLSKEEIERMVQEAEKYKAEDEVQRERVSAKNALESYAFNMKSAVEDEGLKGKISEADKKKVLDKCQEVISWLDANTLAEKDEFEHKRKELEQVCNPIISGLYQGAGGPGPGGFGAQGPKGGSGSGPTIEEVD
# [11] = molecular target: T7, Dual specificity protein phosphatase 6 (Rattus norvegicus, UniProt Q64346); assay: inhibition of rat DUSP6 enzyme activity – biochemical, in vitro, primary screen (AID 425)
# T7 sequence (Q64346 whole entry): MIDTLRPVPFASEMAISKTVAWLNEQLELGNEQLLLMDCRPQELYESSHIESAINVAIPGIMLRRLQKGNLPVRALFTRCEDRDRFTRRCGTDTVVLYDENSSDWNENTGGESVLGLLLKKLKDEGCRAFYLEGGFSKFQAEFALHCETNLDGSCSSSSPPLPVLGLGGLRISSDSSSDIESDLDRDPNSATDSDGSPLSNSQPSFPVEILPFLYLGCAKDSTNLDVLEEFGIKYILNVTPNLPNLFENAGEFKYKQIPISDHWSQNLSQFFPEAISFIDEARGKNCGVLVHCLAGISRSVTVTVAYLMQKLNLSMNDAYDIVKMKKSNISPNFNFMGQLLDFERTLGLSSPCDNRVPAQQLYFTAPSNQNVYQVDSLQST
# [12] = molecular target: T6, Heat shock 70 kDa protein 1A; assay: small molecules displacing fluorescent ligand from Hsp70 – biochemical, fluorescence polarization, primary screen (AID 583)
# Bcl-2-like protein 10 [13] = molecular target: T8, Bcl-2-like protein 10 (Homo sapiens, UniProt Q9HD36); assay: Bcl-B/TR3 peptide binding disruption – biochemical, fluorescence polarization, FITC-TR3 peptide, selectivity assay for Bfl-1 inhibitor project, primary screen (AID 748);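 note: fluorescence polarization from a fluorescein-labelled TR3 peptide binding purified Bcl-B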
# T8 sequence (Q9HD36 whole entry): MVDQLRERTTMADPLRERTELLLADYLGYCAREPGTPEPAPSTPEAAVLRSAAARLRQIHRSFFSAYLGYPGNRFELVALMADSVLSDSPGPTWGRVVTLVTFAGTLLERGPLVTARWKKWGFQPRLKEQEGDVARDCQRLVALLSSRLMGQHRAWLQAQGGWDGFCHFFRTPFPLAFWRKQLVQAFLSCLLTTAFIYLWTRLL
# Bcl-2-like protein 10 [14] = molecular target: T8, Bcl-2-like protein 10; assay: Concentration-response of Bcl-B inhibitors by biochemical FP with TR3 (AID 1243); assay type: functional
# [15] = molecular target: Peroxisome proliferator-activated receptor gamma/Nuclear receptor coactivator 1 (Homo sapiens, UniProt P37231); assay type: functional;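 note: agonist potency as compounds enhance coactivator SRC-1 recruitment to PPARgamma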
# Peroxisome proliferator-activated receptor gamma/Nuclear receptor coactivator 1, sequence (P37231 whole entry): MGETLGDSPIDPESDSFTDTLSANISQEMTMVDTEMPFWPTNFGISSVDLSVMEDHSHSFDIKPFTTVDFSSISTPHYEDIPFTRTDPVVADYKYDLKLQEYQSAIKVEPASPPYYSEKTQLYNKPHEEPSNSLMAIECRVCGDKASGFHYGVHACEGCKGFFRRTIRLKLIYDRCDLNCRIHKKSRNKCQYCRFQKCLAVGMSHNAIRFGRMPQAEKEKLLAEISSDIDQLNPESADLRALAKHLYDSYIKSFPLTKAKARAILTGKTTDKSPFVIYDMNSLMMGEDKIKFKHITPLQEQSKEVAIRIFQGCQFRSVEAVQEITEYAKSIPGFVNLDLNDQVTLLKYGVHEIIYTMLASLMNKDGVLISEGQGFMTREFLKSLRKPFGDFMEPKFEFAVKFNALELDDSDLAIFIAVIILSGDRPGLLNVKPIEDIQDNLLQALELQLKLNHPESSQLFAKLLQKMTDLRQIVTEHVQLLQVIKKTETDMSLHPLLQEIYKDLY
# Peroxisome proliferator-activated receptor gamma/Nuclear receptor coactivator 1, sequence (Q15788 whole entry, further chain): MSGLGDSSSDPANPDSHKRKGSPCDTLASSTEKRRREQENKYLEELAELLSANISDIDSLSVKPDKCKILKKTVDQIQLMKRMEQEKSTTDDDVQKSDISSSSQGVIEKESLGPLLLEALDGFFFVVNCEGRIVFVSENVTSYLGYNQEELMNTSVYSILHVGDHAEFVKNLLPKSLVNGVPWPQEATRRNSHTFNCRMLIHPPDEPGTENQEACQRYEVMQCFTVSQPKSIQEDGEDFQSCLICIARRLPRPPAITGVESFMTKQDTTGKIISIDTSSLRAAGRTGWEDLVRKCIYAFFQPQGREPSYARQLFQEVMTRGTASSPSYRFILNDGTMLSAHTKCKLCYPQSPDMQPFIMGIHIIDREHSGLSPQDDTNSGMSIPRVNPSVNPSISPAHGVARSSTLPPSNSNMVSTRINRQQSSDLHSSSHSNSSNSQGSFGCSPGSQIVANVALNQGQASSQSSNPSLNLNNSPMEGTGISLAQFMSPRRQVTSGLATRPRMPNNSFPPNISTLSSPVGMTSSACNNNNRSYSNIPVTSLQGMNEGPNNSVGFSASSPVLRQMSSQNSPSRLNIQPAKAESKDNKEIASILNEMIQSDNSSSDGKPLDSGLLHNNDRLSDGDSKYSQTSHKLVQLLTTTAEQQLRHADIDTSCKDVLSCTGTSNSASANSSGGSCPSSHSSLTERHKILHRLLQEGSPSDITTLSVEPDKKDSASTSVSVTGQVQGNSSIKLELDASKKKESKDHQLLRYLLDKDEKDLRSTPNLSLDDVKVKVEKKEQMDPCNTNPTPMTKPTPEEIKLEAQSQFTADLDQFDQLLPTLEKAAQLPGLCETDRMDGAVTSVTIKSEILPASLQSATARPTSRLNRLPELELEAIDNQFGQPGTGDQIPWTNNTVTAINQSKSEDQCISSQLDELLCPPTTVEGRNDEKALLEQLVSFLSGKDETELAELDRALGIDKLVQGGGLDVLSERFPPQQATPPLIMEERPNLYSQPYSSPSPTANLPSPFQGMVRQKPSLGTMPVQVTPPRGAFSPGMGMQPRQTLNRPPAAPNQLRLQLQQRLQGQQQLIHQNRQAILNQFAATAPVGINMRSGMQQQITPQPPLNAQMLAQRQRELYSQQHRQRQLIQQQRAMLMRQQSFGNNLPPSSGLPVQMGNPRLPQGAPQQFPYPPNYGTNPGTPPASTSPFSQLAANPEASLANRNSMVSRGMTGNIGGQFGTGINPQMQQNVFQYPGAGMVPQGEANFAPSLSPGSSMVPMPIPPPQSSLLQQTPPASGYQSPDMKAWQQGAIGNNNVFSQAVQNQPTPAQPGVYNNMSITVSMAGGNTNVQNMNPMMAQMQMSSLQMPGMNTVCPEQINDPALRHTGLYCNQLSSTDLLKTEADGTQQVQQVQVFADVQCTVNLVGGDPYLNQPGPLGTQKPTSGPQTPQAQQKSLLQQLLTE
# [16] = molecular target: Peroxisome proliferator-activated receptor gamma/Nuclear receptor coactivator 2 (Homo sapiens, UniProt P37231); assay type: functional;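 note: agonist potency for raising coactivator recruitment to the receptor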
# [17] = molecular target: Peroxisome proliferator-activated receptor gamma/Nuclear receptor coactivator 3 (Homo sapiens, UniProt P37231); assay type: functional;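 note: agonist potency for raising coactivator recruitment to the receptor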
# Peroxisome proliferator-activated receptor gamma/Nuclear receptor coactivator 3, sequence (P37231 whole entry): as the sequence (P37231 whole entry) above
# Peroxisome proliferator-activated receptor gamma/Nuclear receptor coactivator 3, sequence (Q9Y6Q9 whole entry, further chain): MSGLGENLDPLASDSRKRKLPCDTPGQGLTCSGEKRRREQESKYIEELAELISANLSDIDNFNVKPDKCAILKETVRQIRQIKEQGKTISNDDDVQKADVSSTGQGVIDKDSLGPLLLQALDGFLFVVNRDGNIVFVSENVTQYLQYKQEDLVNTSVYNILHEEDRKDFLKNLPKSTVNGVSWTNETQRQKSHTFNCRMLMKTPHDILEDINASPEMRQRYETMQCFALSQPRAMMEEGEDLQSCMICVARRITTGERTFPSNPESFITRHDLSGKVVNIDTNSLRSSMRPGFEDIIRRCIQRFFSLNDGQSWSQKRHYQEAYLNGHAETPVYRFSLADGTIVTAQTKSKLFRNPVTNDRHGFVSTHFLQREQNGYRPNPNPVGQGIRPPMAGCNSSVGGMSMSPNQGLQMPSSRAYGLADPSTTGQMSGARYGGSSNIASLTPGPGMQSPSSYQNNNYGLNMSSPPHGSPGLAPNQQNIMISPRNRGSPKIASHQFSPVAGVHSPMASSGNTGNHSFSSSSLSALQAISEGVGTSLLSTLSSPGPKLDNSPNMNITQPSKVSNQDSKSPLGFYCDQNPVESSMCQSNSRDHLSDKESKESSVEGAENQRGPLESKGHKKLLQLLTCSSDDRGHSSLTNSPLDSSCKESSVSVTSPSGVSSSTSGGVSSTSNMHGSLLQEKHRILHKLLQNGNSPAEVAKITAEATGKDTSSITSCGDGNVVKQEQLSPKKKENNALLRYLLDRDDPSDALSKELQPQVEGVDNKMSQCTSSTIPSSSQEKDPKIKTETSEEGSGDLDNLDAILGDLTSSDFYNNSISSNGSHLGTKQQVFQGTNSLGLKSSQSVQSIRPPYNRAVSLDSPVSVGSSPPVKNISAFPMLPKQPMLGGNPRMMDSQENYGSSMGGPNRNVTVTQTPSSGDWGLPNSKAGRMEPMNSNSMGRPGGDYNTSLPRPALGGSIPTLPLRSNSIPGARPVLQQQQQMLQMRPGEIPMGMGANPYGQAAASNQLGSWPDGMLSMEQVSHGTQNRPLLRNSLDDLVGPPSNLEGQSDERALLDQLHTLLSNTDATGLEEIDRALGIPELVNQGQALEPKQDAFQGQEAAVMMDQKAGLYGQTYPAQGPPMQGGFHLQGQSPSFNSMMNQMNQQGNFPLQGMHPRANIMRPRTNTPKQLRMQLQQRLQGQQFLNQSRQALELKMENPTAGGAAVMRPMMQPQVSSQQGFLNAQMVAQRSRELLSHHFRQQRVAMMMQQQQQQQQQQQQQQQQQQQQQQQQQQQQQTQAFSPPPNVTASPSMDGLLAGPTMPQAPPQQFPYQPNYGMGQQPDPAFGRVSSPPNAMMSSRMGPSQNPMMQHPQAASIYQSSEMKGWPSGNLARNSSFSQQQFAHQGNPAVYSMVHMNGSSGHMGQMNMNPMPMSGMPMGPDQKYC
# 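Throughout, for AC50: cells exposed to compound for roughly 70 hours or longer before luminescence read.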
smiles,measurement,setting,value
O=C(NC(=S)NNC(=O)c1cccs1)c1ccc(Br)o1,EC50,[1],5.31 µM (active)
same,EC50,Ion channel NompC,5.44 µM (active)
same,EC50,Mucolipin-3,5.99 µM (active)
same,EC50,[2],12.2 µM (active)
same,IC50,[3],28.8 µM (active)
O=C(O)CCn1cc(/C=C/C(=O)c2ccc(Cl)cc2)c(-c2ccc(Br)cc2)n1,EC50,[4],15.9 µM (active)
same,IC50,[5],22.7 µM (active)
same,AC50,[6],5.62 µM (active)
same,EC50,[7],15.5 µM (active)
Clc1ccc(CSc2cc3c(nn2)-c2ccccc2CC3)cc1Cl,IC50,[8],5.27 µM (active)
same,IC50,[9],6.88 µM (active)
Cc1ccc(C)n1-c1cccc(C(=O)O)c1,IC50,[10],18.5 µM (active)
same,IC50,[11],> 10 µM (not active)
same,IC50,[12],48.3 µM (active)
same,IC50,Bcl-2-like protein 10 [13],1.13 µM (active)
Cc1ccc(C)n1-c1ccc(Cl)cc1C(=O)O,EC50,Bcl-2-like protein 10 [14],0.94 µM (active)
Brc1ccc(-c2csc(N/N=C/c3ccco3)n2)cc1,EC50,[15],> 79.4 µM (not active)
same,EC50,[16],> 79.4 µM (not active)
same,EC50,[17],> 79.4 µM (not active)

# — ChEMBL document CHEMBL1201862, “PubChem BioAssay data set” (2004)
